Data set [1] relates to Plasmodium falciparum. Kind of data set: Antiplasmodial activity against Plasmodium falciparum Dd2. It counts as functional, organism-based.
Data set [2] concerns Plasmodium falciparum. Kind of data set: Antiplasmodial activity against Plasmodium falciparum Dd2 harboring DHODH mutant. It counts as functional, organism-based.
Data set [3] has as its system Plasmodium falciparum. Kind of data set: Antiplasmodial activity against Plasmodium falciparum Dd2 harboring HSP90 mutant. The format is functional, organism-based.
For data set [4], the system named is Plasmodium falciparum. Nature of the data set: Antiplasmodial activity against Plasmodium falciparum Dd2 harboring CRT mutant. The format is functional, organism-based.
In data set [5] the test system is Plasmodium falciparum. Kind of data set: Antiplasmodial activity against Plasmodium falciparum Dd2 harboring CYTb-Qi mutant. The format is functional, organism-based.
Data set [6] can be described thus: Selectivity index, ratio of IC50 for human A549 cells to IC50 for Plasmodium falciparum. The format is toxicity, cell-based. Conditions: read-out: Ratio IC50.
Data set [7] addresses Voltage-gated inwardly rectifying potassium channel KCNH2 (Homo sapiens, UniProt Q12809). Kind of data set: Inhibition of human ERG.
A short description of data set [8]: Clearance in rat hepatocytes assessed per 1E6 cells. The format is ADME, cell-based, Hepatocyte. The conditions noted are these: read-out: CLH.
A short description of data set [9]: Clearance in human liver microsomes. The format is ADME. Conditions: read-out: CLH. Background: Liver microsomes are vesicles of endoplasmic reticulum, rich in cytochrome P450 enzymes.
A short description of data set [10]: Clearance in mouse liver microsomes. The format is ADME. Conditions: read-out: CLH.
The nature of data set [11]: Aqueous solubility of the compound. The conditions noted are these: buffer. The format is physicochemical.
Data set [12] can be described thus: Lipophilicity, log D of the compound. The format is physicochemical. The conditions noted are these: octanol/water.
Data set [13] in a line: Fraction unbound in human plasma. It counts as ADME, cell-free.
The next data set concerns the target Cytochrome P450 3A4 (Homo sapiens, UniProt P08684). Nature of the data set: Inhibition of CYP3A4 (unknown origin). The format is ADME.
A further data set has as its target Cytochrome P450 2D6 (Homo sapiens, UniProt P10635). Kind of data set: Inhibition of CYP2D6 (unknown origin). The format is ADME.
A further data set has as its target Cytochrome P450 2C9 (Homo sapiens, UniProt P11712). Kind of data set: Inhibition of CYP2C9 (unknown origin). The format is ADME.
The target in another data set is Cytochrome P450 2C19 (Homo sapiens, UniProt P33261). Kind of data set: Inhibition of CYP2C19 (unknown origin). It counts as ADME.
Chain of Cytochrome P450 2C19 (P33261 whole entry): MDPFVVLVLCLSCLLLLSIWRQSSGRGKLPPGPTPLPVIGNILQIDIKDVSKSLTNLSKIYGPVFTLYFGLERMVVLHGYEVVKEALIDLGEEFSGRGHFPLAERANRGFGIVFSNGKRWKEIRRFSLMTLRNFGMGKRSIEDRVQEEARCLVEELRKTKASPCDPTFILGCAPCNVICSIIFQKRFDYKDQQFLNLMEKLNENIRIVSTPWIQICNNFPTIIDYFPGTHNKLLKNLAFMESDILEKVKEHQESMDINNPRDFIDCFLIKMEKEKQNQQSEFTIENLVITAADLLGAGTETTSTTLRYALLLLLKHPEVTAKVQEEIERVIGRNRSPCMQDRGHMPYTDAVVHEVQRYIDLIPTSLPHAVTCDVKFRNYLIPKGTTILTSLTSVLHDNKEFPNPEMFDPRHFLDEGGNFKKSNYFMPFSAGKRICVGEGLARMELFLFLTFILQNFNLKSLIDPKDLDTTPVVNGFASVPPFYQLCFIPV
The target in a further data set is T1, Cytochrome P450 1A2 (Homo sapiens, UniProt P05177).
T1 sequence (P05177 whole entry): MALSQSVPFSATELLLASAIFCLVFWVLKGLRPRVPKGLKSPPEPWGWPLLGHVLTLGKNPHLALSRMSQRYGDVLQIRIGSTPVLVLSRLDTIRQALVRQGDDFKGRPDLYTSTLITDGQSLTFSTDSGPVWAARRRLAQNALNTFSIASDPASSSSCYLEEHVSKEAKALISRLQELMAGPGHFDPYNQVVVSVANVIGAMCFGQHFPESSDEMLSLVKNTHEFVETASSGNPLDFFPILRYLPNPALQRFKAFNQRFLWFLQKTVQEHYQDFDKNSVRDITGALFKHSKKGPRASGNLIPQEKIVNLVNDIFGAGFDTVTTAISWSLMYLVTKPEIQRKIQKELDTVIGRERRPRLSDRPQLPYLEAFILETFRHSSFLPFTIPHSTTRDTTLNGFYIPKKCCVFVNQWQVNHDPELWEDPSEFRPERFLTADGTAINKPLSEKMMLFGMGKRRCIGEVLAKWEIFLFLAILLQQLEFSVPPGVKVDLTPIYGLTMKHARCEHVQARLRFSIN
Kind of data set: Inhibition of CYP1A2 (unknown origin). The format is ADME.

Data set [14] deals with Plasmodium falciparum. Kind of data set: microbe, parasite or virus in culture. The conditions noted are these: 7G8, 72 h.
Description: Antiplasmodial activity against Plasmodium falciparum 7G8 after 72 hrs by SYBR I method
For data set [15], the system named is Plasmodium falciparum. Kind of data set: microbe, parasite or virus in culture. The conditions noted are these: W2, 72 h.
Description: Antiplasmodial activity against Plasmodium falciparum W2 after 72 hrs by SYBR I method
The test system of data set [16] is Plasmodium falciparum. Nature of the data set: microbe, parasite or virus in culture. Conditions: SB1, 72 h.
Description: Antiplasmodial activity against Plasmodium falciparum SB1 after 72 hrs by SYBR I method
Data set [17] concerns Plasmodium falciparum. Kind of data set: microbe, parasite or virus in culture. Conditions: Dd2, 72 h.
Description: Antiplasmodial activity against Plasmodium falciparum Dd2 after 72 hrs by SYBR I method
The test system of data set [18] is Plasmodium falciparum. Nature of the data set: microbe, parasite or virus in culture. The conditions noted are these: NF54, 72 h.
In data set [19] the test system is Plasmodium falciparum. Nature of the data set: microbe, parasite or virus in culture. Conditions: K1, 72 h.
The subject of data set [20] is Plasmodium falciparum. Kind of data set: Antiplasmodial activity against chloroquine and pyrimethamine-sensitive Plasmodium falciparum 3D7A assessed as parasite reduction ratio at 10 times IC50 after 48 hrs. The format is functional, organism-based.
For another data set, the system named is Plasmodium berghei. Nature of the data set: Antiplasmodial activity against Plasmodium berghei ANKA expressing GFP infected in BALB/c mouse assessed as host survival days at 30 mg/kg, po qd for 4 days. It counts as functional.

Converted amounts (≈) assume the structure as drawn. The source made the active and inactive calls. The calls are words filed in the database; no cut-off is given here.

Chain of Voltage-gated inwardly rectifying potassium channel KCNH2 (Q12809 whole entry): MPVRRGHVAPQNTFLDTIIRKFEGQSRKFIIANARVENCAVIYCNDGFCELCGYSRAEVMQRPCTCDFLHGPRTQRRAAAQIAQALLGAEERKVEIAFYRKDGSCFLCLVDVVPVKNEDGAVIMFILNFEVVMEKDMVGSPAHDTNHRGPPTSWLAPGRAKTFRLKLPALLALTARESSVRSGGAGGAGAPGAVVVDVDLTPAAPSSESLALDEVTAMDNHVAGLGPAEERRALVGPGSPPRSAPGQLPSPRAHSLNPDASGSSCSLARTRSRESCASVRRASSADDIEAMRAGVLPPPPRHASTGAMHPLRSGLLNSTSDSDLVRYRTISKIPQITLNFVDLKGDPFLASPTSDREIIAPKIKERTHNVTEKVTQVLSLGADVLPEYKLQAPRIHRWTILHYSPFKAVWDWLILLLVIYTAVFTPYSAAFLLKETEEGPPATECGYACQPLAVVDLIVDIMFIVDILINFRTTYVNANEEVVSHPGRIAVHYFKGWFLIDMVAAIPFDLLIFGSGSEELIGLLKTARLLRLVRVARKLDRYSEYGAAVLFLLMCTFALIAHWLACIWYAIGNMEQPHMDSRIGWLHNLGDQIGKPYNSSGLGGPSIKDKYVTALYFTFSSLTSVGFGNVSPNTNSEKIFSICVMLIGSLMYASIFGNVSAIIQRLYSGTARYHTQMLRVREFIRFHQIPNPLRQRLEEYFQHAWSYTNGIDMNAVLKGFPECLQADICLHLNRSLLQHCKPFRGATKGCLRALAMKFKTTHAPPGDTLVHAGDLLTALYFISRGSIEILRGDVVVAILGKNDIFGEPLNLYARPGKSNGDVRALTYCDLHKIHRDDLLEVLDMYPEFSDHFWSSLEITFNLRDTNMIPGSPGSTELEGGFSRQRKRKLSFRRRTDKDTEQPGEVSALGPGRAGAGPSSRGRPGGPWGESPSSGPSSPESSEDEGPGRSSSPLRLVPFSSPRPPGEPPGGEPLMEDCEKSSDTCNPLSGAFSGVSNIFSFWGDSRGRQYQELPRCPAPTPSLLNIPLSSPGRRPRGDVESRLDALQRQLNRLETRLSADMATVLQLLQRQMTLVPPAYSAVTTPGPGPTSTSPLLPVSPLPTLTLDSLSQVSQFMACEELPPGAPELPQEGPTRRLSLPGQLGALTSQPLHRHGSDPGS
Chain of Cytochrome P450 2D6 (P10635 whole entry): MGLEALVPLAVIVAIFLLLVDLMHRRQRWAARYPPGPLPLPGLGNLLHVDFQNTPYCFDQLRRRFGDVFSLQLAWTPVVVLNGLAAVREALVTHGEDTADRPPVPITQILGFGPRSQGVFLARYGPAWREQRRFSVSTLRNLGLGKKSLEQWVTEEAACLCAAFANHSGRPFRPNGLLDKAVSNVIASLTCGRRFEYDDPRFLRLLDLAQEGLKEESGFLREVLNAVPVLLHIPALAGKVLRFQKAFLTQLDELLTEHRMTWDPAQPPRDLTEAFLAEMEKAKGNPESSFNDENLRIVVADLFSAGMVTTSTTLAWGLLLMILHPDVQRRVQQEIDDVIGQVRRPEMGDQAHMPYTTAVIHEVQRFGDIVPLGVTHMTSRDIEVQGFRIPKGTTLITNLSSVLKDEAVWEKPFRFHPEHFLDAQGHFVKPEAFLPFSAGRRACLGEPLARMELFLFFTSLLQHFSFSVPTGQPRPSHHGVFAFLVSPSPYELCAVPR
Chain of Cytochrome P450 3A4 (P08684 whole entry): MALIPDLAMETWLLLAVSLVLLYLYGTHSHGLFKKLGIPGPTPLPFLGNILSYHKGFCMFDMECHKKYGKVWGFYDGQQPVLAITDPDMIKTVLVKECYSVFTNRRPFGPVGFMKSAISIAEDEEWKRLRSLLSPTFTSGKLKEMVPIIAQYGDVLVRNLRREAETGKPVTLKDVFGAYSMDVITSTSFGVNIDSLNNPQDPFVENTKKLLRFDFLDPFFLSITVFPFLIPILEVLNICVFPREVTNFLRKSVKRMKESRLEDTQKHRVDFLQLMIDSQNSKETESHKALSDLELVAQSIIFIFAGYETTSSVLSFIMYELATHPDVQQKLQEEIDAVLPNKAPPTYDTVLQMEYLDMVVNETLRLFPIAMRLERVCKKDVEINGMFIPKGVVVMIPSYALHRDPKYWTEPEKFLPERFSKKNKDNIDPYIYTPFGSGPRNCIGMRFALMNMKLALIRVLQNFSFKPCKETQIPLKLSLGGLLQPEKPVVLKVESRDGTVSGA
Chain of Cytochrome P450 2C9 (P11712 whole entry): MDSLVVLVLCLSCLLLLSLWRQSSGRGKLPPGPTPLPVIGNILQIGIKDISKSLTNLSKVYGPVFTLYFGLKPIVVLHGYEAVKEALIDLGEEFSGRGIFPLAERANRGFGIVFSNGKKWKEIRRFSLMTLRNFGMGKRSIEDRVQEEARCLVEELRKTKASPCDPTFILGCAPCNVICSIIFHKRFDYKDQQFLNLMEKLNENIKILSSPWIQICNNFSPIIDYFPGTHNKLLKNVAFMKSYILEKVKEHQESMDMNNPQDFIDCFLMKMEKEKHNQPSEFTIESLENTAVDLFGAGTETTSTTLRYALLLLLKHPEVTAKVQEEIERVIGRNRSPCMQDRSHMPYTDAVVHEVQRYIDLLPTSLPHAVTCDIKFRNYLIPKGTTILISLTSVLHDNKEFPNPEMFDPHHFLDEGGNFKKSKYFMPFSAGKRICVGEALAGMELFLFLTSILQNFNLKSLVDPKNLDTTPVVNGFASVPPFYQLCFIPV

`CN1CCN(C(=O)c2ccc3c(c2)N(Cc2c(F)cccc2Cl)C(=O)c2ccccc2S3)CC1`: the IC50 with Plasmodium falciparum [1] is 7.3 nM; in the data set with Plasmodium falciparum [2] it was 16.9 nM; in the data set on Plasmodium falciparum [3], 8.42 nM; in the data set with Plasmodium falciparum [4], 1040 nM; in the data set on Plasmodium falciparum [5], 3.16 nM.

Turning to `Cc1nc2c(C#N)cccc2n1-c1ccc(C(=O)NC2CC2)s1`, the IC50 in the data set on Plasmodium falciparum [1] came out at 5.79 nM; in the data set on Plasmodium falciparum [2], 76.8 nM; in the data set with Plasmodium falciparum [3], 16.2 nM; in the data set on Plasmodium falciparum [4], 5.07 nM; with Plasmodium falciparum [5], 9.94 nM.

Regarding `CN1CCN(c2ccc3nc(N)n(CC(O)c4ccc(C(F)(F)F)cc4Cl)c3n2)CC1` (racemic), the selectivity ratio in data set [6] came to 348. Further, the IC50 in data set [7] was 12200 nM; against Cytochrome P450 3A4, 14100 nM; against Cytochrome P450 2D6 it was 27900 nM; against Cytochrome P450 2C9, over 30000 nM; at Cytochrome P450 2C19 it was 5000 nM; against Cytochrome P450 1A2, over 30000 nM. For the same molecule, the IC50 was determined as 37.9 nM in the data set on Plasmodium falciparum [14]; 156 nM in the data set on Plasmodium falciparum [15]; 220 nM in the data set with Plasmodium falciparum [16]; 370 nM with Plasmodium falciparum [17]; 89 nM in the data set on Plasmodium falciparum [18]; 85 nM in the data set with Plasmodium falciparum [19]. Also, the hepatocyte CLint in [8] is 106 µL/min/1e6 cells. For the same molecule, the microsomal CLint in [9] was 21 µL/min/mg; in [10] it was 102 µL/min/mg. The solubility in [11] is 118 µM (≈ 53.7 µg/mL). This molecule also showed a logD in data set [12] of 2.8. For the same molecule, the fraction unbound in [13] was found to be 0.234.

Regarding `Nc1nc2ccc(OCC(F)(F)F)nc2n1CC(O)c1ccc(C(F)(F)F)cc1Cl` (racemic), the IC50 in the data set with Plasmodium falciparum [1] was 24.6 nM; in the data set with Plasmodium falciparum [2], 19.7 nM; in the data set with Plasmodium falciparum [3], 34.1 nM; in the data set with Plasmodium falciparum [4] it was 16.4 nM; in the data set with Plasmodium falciparum [5] it was 11.8 nM; in data set [7], over 33300 nM. The IC50 with Plasmodium falciparum [14] was found to be 12 nM; with Plasmodium falciparum [15], 62 nM; in the data set on Plasmodium falciparum [16], 178 nM; with Plasmodium falciparum [17], 135 nM; in the data set with Plasmodium falciparum [18] it was 43 nM; in the data set on Plasmodium falciparum [19], 10 nM. Moreover, the outcome in the data set with Plasmodium falciparum [20] was Active. Besides, the selectivity ratio in data set [6] is 232. Further, the hepatocyte CLint in data set [8] came to 36 µL/min/1e6 cells. Also, the microsomal CLint in [9] was 45 µL/min/mg; in [10], 21 µL/min/mg.

`Nc1nc2ccc(OC3CCOC3)nc2n1CC(O)c1ccc(C(F)(F)F)cc1Cl` (racemic): the outcome in the data set on Plasmodium falciparum [20] was Active. Moreover, in [6], the selectivity ratio worked out at 800. Moreover, the IC50 in [7] was 16600 nM; at Cytochrome P450 3A4, 2400 nM; at Cytochrome P450 2D6 it was 12500 nM; at Cytochrome P450 2C9 it was over 30000 nM; on Cytochrome P450 2C19, 780 nM; against Cytochrome P450 1A2 it was over 30000 nM. The IC50 is 25 nM in the data set with Plasmodium falciparum [18] and 18 nM in the data set with Plasmodium falciparum [19]. Further, the hepatocyte CLint in data set [8] came to 105 µL/min/1e6 cells. Besides, the microsomal CLint in data set [9] amounted to 76 µL/min/mg; in data set [10] it was 90 µL/min/mg. The concentration in solution in data set [11] (solubility) was 160 µM (≈ 70.9 µg/mL). The logD in data set [12] amounted to 3.7. This molecule also yielded a fraction unbound in [13] of 0.026.

Take `C[C@@H]1CC[C@H]2[C@@H](C)C(=O)O[C@@H]3O[C@@]4(C)CC[C@@H]1[C@]32OO4` [ARTEMISININ]: the IC50 turned out to be 1.51 nM in the data set with Plasmodium falciparum [1]; 1.81 nM in the data set with Plasmodium falciparum [2]; 1.29 nM in the data set on Plasmodium falciparum [3]; 1.84 nM in the data set with Plasmodium falciparum [4]; 1.26 nM in the data set with Plasmodium falciparum [5]; 1.3 nM in the data set with Plasmodium falciparum [14]. For the same molecule, the IC50 in the data set with Plasmodium falciparum [15] was 6.52 nM; with Plasmodium falciparum [16] it was 16.6 nM; in the data set on Plasmodium falciparum [17] it was 10.3 nM; with Plasmodium falciparum [18] it was 7.05 nM; with Plasmodium falciparum [19] it was 6.47 nM.

With `CCN(CC)CCCC(C)Nc1ccnc2cc(Cl)ccc12` (centres undefined) [CHLOROQUINE], in the data set on Plasmodium berghei, the Survival was 27 days.

What is called IC50 is the concentration that inhibits the measured activity by half. Low values mean higher potency, high ones lower potency. By solubility is commonly meant how much of the substance goes into solution per volume. Broadly, the logD is the decadic logarithm of the distribution of all forms, ionised or not, between an organic phase and buffer at a given pH. Read a high logD as higher lipophilicity. A word on the fraction unbound: it is free concentration divided by total concentration. A high value points to much free substance.

The record behind these values is ChEMBL document CHEMBL3286148, “Aminoazabenzimidazoles, a novel class of orally active antimalarial agents” (J Med Chem, 2014).
